Legend:
[1] = target: T1, rhIDUA (Aldurazyme) (Homo sapiens, UniProt P35475); experiment: IDUA assay in bone marrow of mice co-administered rhIDUA and GT-01803; type: in vivo, male C57BL/6 mice; conditions: GT-01803 5, 10, 20 mg/kg i.v. + rhIDUA 1.2 mg/kg i.v.; 6, 8, 10 h; dose-dependent, significant at 20 mg/kg
T1 sequence (P35475 28-653): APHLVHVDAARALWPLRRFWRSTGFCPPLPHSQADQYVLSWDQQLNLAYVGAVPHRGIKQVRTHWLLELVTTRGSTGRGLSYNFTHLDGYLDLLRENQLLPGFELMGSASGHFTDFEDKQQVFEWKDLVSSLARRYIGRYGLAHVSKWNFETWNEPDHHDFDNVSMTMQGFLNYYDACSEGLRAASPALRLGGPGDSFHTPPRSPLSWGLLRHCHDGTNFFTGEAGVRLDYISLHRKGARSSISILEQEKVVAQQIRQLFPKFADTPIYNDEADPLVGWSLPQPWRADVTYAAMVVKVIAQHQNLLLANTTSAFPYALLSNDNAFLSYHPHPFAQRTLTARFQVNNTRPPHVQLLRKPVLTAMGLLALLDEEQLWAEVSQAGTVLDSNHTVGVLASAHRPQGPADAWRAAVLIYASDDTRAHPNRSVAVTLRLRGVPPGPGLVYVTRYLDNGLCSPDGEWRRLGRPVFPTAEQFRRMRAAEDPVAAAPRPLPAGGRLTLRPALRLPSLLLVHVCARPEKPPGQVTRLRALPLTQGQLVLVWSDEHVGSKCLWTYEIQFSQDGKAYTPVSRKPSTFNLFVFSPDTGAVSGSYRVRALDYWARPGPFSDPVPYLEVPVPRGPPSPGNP
Procedure: Mice studies were performed by Sai Life Sciences (Pune, India). All procedures of the present study were in accordance with the guidelines provided by the Committee for the Purpose of Control and Supervision of Experiments on Animals (CPCSEA) as published in The Gazette of India, December 15, 1998. In addition, prior approval from the Institutional Animal Ethics Committee (IAEC) was obtained before the initiation of the study. Healthy male C57BL/6 mice (8–10 weeks old) weighing between 22 and 25 g were procured (Global, Pune, India). Three to five mice were housed in each cage. Temperature and humidity were maintained at 22 ± 2 °C and 41–63%, respectively, and illumination was controlled to give a sequence of a 12 h light and 12 h dark cycle. In the study’s in-life phase, we provided all mice with cage enrichment to minimize anxiety. We conducted bone marrow sampling under isoflurane anesthesia, maintaining it throughout the entire procedure. […] All procedures were carried out according to our in-house Standard Operating Procedures and monitored by a veterinarian if required. […]
Bone marrow samples from mice were collected at 2, 6, 8 and 10 h after treatment with compound #18 (GT-01803). […] The relative fluorescence unit (RFU) in the IDUA enzymatic assay was measured in duplicates (two replicates) and then averaged to obtain the enzyme activity per animal.

[2] = target: T2, IDUA (Homo sapiens, UniProt P35475); experiment: IDUA enzymatic activity in patient-derived fibroblasts after rhIDUA with or without compound (4-MUI substrate); type: cell-based; design: Institute of Biotechnology and Biomedicine, Autonomous University of Barcelona (UAB), Bellaterra, Spain
T2 sequence (P35475 28-653): T1 sequence (P35475 28-653)
Procedure: Fibroblasts derived from Hurler (GM00798) and Hurler/Scheie patients (GM02845, GM00512, GM01898, GM00963) were purchased from Coriell (Camden, NJ). Fibroblasts were cultured in Dulbecco’s modified Eagle’s medium (DMEM, Gibco) supplemented with 10% inactivated fetal bovine serum (FBS, Gibco) and 1% penicillin-streptomycin (Thermo Fisher Scientific, Waltham, MA, USA) (growth medium) at 37 °C under 5% CO2. The effect of the protein and/or compound in enhancing IDUA enzymatic activity was evaluated as follows: The specified patient-derived fibroblasts were seeded at 4x10^4 cells per well in 12-well cell culture plates in growth medium. Subsequently, cells were incubated with indicated dose of rhIDUA (obtained from the Institute of Biotechnology and Biomedicine in the UAB, Bellaterra, Spain) in the absence or presence of the compound #18 (GT-01803) for the specified incubation times at 50 μM. After incubation, cells were washed with PBS and detached using Trypsin-EDTA solution (Sigma Aldrich, St. Louis, MO, USA) to prepare cell pellets. The pellets were stored at -80 °C until activity assays were performed. IDUA activity in cell lysates was measured using 4-methylumbelliferyl IDUA substrate (4-MUI, Glycosynth Ltd., #44076, Warrington, UK). Briefly, lysates were resuspended in 120 μL of 0.9% NaCl containing 0.01% Triton X-100 lysis buffer to promote membrane disruption. Next, the cell suspension was sonicated and centrifuged to pellet insoluble materials. Then, 25 μL of lysates were mixed with 25 μL of 200 μM 4-MUI substrate solution in 0.4 M sodium formate, pH 3.5, 0.2% Triton X-100 buffer and incubated for 60 mins at 37 °C. The reaction was stopped by adding 200 μL of 0.5 M Glycine/0.3 M NaOH buffer, pH 10. The liberated 4-methylumbelliferone (4-MU) was measured on a Glomax® Discover microplate reader with excitation at 340 nm and emission at 460 nm. Protein quantification was determined using Pierce BCA Protein Assay Kit (Thermo Fisher Scientific, Waltham, MA, USA). Measurements were interpolated in a 4-MU standard curve and normalised by protein quantity.
For Fig 6A, rhIDUA concentrations of 0.187, 0.375 and 1.25 nM were tested in GM02845 fibroblasts over a 96-hour period, both in the presence and absence of the compound #18 (GT-01803) at 50 μM. In Fig 6B, 1.25 nM of rhIDUA was evaluated in GM02845, GM00798, GM00512, and GM00963 fibroblasts for 96h, with and without the compound #18 (GT-01803) at 50 μM. In Fig 6C, a concentration of 1.25 nM of the protein was applied to fibroblasts for 4, 8, 24 and 96h, with and without the compound #18 (GT-01803) at 50 μM.

[3] = rhIDUA 1.25 nM + GT-01803 50 μM, GM02845 fibroblasts (Fig 6C)

CCN(CC(=O)Nc1c(Cl)cccc1Cl)Cc1nc2ccsc2c(=O)[nH]1 [GT-01803]
IDUA enzymatic activity levels in bone marrow [1]: increased | IDUA cell activity compared with rhIDUA alone ([2]; co-administration of rhIDUA (0.187, 0.375, 1.25 nM) with 50 μM GT-01803, GM02845, 96 h, p ≤ 0.0001): marked dose-dependent increase | mean IDUA cell activity at 96h [2, 3]: 104.3 nmol/h/mg | mean difference in IDUA cell activity at 96h, rhIDUA + compound vs rhIDUA alone [2, 3]: 28.65 ± 3.106 nmol/h/mg
